Measurements from ChEMBL document CHEMBL3792323, “Piperidine derivatives as nonprostanoid IP receptor agonists” (Bioorg Med Chem Lett, 2016).

Experiments:
[1] = target: T1, Prostaglandin E2 receptor EP3 subtype (Homo sapiens, UniProt P43115); test: Binding affinity to human EP3 receptor by competitive binding assay
T1 sequence (P43115 whole entry): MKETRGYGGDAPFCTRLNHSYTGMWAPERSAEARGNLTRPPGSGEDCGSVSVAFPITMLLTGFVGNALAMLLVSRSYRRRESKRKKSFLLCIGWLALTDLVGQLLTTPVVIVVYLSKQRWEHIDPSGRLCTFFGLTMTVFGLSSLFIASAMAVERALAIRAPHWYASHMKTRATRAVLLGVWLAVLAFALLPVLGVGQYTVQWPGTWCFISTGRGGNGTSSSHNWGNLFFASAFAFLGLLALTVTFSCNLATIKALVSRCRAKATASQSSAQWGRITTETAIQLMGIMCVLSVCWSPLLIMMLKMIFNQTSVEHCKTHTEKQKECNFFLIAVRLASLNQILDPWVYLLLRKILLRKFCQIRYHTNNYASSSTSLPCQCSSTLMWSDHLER

Thromboxane A2 receptor = target: T2, Thromboxane A2 receptor (Homo sapiens, UniProt P21731); test: Binding affinity to human TP receptor by competitive binding assay
T2 sequence (P21731 whole entry): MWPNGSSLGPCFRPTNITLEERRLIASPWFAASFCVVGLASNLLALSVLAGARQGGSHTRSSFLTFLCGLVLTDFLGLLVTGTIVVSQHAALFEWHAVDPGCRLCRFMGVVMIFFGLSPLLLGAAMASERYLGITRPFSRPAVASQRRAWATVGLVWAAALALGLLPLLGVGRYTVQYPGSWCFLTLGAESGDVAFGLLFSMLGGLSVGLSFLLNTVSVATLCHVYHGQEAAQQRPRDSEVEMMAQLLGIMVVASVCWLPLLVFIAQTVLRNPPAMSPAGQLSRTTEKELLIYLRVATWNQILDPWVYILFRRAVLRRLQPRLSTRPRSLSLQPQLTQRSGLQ

[2] = Oral bioavailability in fasted dog at 2.5 mg/kg; type: ADME, organism-based, Canis lupus familiaris; conditions: in vivo
[3] = target: Prostaglandin E2 receptor EP2 subtype (Homo sapiens, UniProt P43116); test: Binding affinity to human EP2 receptor by competitive binding assay
Sequence of Prostaglandin E2 receptor EP2 subtype (P43116 whole entry): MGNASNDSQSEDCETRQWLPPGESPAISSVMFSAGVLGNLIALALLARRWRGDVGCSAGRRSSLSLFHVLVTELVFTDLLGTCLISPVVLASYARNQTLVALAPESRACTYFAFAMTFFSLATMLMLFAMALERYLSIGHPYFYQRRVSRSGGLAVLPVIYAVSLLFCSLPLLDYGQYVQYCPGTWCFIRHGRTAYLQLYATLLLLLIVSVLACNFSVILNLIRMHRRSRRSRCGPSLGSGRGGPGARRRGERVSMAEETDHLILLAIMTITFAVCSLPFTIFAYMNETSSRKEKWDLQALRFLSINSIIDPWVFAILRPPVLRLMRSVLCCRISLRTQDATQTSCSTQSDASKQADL

[4] = target: Prostaglandin F2-alpha receptor (Homo sapiens, UniProt P43088); test: Binding affinity to human FP receptor by competitive binding assay
Sequence of Prostaglandin F2-alpha receptor (P43088 whole entry): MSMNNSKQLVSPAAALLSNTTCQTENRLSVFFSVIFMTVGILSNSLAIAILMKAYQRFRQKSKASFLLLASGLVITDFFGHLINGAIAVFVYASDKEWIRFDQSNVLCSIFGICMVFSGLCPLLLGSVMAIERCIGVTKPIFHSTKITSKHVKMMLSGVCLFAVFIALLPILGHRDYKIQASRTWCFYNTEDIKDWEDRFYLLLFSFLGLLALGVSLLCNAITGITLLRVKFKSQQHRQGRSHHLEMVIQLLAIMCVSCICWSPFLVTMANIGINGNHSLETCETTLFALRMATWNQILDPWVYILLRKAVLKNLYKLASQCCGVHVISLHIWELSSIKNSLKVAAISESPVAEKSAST

[5] = target: T3, Prostaglandin E2 receptor EP1 subtype (Homo sapiens, UniProt P34995); test: Binding affinity to human EP1 receptor by competitive binding assay
T3 sequence (P34995 whole entry): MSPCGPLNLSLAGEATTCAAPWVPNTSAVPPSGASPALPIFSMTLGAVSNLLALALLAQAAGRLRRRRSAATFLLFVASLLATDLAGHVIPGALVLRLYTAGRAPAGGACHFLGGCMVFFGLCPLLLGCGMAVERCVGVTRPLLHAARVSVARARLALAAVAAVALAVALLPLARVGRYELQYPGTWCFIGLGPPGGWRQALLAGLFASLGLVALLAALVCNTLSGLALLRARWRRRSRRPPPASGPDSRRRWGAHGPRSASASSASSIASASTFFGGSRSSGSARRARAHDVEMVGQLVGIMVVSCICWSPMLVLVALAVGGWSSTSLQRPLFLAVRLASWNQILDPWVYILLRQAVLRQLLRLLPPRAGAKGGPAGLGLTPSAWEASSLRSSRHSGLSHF

Prostacyclin receptor = Prostacyclin receptor (Homo sapiens, UniProt P43119); test: Binding affinity to human IP receptor by competitive binding assay
Sequence of Prostacyclin receptor (P43119 whole entry): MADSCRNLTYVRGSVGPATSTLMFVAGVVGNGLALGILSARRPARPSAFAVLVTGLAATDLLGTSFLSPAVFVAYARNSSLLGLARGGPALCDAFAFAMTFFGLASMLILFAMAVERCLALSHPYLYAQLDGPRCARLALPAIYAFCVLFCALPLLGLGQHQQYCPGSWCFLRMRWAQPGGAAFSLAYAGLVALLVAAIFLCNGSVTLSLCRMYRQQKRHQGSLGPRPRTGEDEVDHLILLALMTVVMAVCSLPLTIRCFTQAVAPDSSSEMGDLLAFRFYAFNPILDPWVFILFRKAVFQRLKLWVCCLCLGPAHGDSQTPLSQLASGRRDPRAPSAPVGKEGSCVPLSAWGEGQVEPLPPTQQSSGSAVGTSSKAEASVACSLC

[6] = target: Prostaglandin E2 receptor EP4 subtype (Homo sapiens, UniProt P35408); test: Binding affinity to human EP4 receptor by competitive binding assay
Sequence of Prostaglandin E2 receptor EP4 subtype (P35408 whole entry): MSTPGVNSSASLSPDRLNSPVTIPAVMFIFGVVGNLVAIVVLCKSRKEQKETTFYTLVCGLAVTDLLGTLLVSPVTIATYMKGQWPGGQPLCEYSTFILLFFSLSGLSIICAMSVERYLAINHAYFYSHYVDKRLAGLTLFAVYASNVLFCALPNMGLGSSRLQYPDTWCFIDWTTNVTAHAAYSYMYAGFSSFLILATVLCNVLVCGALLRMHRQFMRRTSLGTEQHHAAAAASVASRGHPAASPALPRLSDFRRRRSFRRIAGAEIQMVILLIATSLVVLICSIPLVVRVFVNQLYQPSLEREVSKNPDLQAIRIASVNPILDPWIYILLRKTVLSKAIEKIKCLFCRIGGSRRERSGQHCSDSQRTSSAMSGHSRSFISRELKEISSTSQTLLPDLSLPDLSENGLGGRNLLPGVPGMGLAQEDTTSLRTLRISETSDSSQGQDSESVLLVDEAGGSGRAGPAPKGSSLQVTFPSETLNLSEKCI

[7] = Cmax in fasted dog at 2.5 mg/kg, po; type: ADME, organism-based, Canis lupus familiaris; design: dose 2.5 mg/kg, route oral; conditions: in vivo

Ki [1]	Ki (Thromboxane A2 receptor)	bioavailability [2]	Ki [3]	Ki [4]	Ki [5]	Ki (Prostacyclin receptor)	Ki [6]	Cmax [7]	Structure (SMILES)
> 50 µM	> 50 µM	77%	> 50 µM	> 50 µM	> 50 µM	0.99 µM	> 50 µM	1610 ng/mL	Cc1ccc(N(CCN2CCC(OCC(=O)O)CC2)C(=O)c2ccccc2)cc1
		13%						138 ng/mL	O=C(O)COc1cccc2c1OCCN2CCN(C(=O)c1ccccn1)c1ccc(Cl)cc1
